Laboratory results published in PubChem BioAssay AID1919008 (Molecular Pharmacology Branch, DTP, NCI, 2023).
“And” between values parts separate entries of the source, which are not always exact repeats. Equal entries are not always repeated.

Test system: DMS-114 complex spheroids with HUVEC/MSC, growth % test/control
Assay: Anticancer human tumor DMS-114 cell line growth inhibition [AhR];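 further: spheroids exposed to agents for 7 days before readout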;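 on viability, T/C: 100% = DMSO vehicle control wells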
Details: for IC50: curve of first compound; for viability, T/C: stronger effect = lower value
In short: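 Spheroids combined tumor cells with HUVEC endothelial cells and human MSCs as stroma. AhR antagonists were paired with standard or investigational drugs, each dosed in half-log steps down from near clinical Cmax, or from 10 microM where Cmax was unknown.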

[1] = second compound 0.1 µM, first compound 0.0316 µM
[2] = second compound 0.1 µM, first compound 0.1 µM
[3] = second compound 0.1 µM, first compound 0.316 µM
[4] = second compound 0.1 µM, first compound 1 µM
[5] = second compound 0.1 µM, first compound 3.16 µM
[6] = second compound 0.1 µM, first compound 10 µM
[7] = second compound 0.316 µM, first compound 0.0316 µM
[8] = second compound 0.316 µM, first compound 0.1 µM
[9] = second compound 0.316 µM, first compound 0.316 µM
[10] = second compound 0.316 µM, first compound 1 µM
[11] = second compound 0.316 µM, first compound 3.16 µM
[12] = second compound 0.316 µM, first compound 10 µM
[13] = second compound 1 µM, first compound 0.0316 µM
[14] = second compound 1 µM, first compound 0.1 µM
[15] = second compound 1 µM, first compound 0.316 µM
[16] = second compound 1 µM, first compound 1 µM
[17] = second compound 1 µM, first compound 3.16 µM
[18] = second compound 1 µM, first compound 10 µM
[19] = second compound 3.16 µM, first compound 0.0316 µM
[20] = second compound 3.16 µM, first compound 0.1 µM
[21] = second compound 3.16 µM, first compound 0.316 µM
[22] = second compound 3.16 µM, first compound 1 µM
[23] = second compound 3.16 µM, first compound 3.16 µM
[24] = second compound 3.16 µM, first compound 10 µM
[25] = second compound 10 µM, first compound 0.0316 µM
[26] = second compound 10 µM, first compound 0.1 µM
[27] = second compound 10 µM, first compound 0.316 µM
[28] = second compound 10 µM, first compound 1 µM
[29] = second compound 10 µM, first compound 3.16 µM
[30] = second compound 10 µM, first compound 10 µM

How did the IC50 (second compound 0.1 µM) turn out when O=C(C=Cn1cnc(-c2cc(C(F)(F)F)cc(C(F)(F)F)c2)n1)NNc1cnccn1 + CC(CO)NC(=O)c1cc(-c2ccc(Cl)cc2)nn(-c2cnn(C)c2)c1=O was run?
The IC50 was 183 nM.

What about the IC50 (second compound 0.316 µM) of the same compound?
Its IC50 is 156 nM.

What about the IC50 (second compound 1 µM) of the same compound?
Its IC50 is 169 nM.

And the IC50 (second compound 3.16 µM)?
Its IC50 is 180 nM.

And the IC50 (second compound 10 µM)?
Its IC50 is 209 nM.

What about the viability, T/C (second compound 0.1 µM, first compound 0.00949 µM) of the same compound?
Its viability, T/C is 103%.

And the viability, T/C (second compound 0.1 µM, first compound 0.03 µM)?
Its viability, T/C is 99.2%.

And the viability, T/C (second compound 0.1 µM, first compound 0.0949 µM)?
The viability, T/C was 63.3%.

And the viability, T/C (second compound 0.1 µM, first compound 0.3 µM)?
Its viability, T/C is 38.2%.

And the viability, T/C (second compound 0.1 µM, first compound 0.949 µM)?
The viability, T/C was 18.7%.

And the viability, T/C (second compound 0.1 µM, first compound 3 µM)?
Its viability, T/C is 7.72%.

And the viability, T/C (second compound 0.316 µM, first compound 0.00949 µM)?
Its viability, T/C is 97.8%.

And the viability, T/C (second compound 0.316 µM, first compound 0.03 µM)?
The viability, T/C was 93.9%.

What about the viability, T/C (second compound 0.316 µM, first compound 0.0949 µM) of the same compound?
Its viability, T/C is 57.2%.

And the viability, T/C (second compound 0.316 µM, first compound 0.3 µM)?
The viability, T/C was 36.1%.

What about the viability, T/C (second compound 0.316 µM, first compound 0.949 µM) of the same compound?
The viability, T/C was 16.8%.

What about the viability, T/C (second compound 0.316 µM, first compound 3 µM) of the same compound?
The viability, T/C was 7.29%.

What about the viability, T/C (second compound 1 µM, first compound 0.00949 µM) of the same compound?
The viability, T/C was 85.8%.

And the viability, T/C (second compound 1 µM, first compound 0.03 µM)?
Its viability, T/C is 97.2%.

And the viability, T/C (second compound 1 µM, first compound 0.0949 µM)?
The viability, T/C was 59.4%.

And the viability, T/C (second compound 1 µM, first compound 0.3 µM)?
Its viability, T/C is 37%.

What about the viability, T/C (second compound 1 µM, first compound 0.949 µM) of the same compound?
Its viability, T/C is 16.4%.

What about the viability, T/C (second compound 1 µM, first compound 3 µM) of the same compound?
The viability, T/C was 8.32%.

And the viability, T/C (second compound 3.16 µM, first compound 0.00949 µM)?
The viability, T/C was 97.1%.

What about the viability, T/C (second compound 3.16 µM, first compound 0.03 µM) of the same compound?
Its viability, T/C is 121%.

And the viability, T/C (second compound 3.16 µM, first compound 0.0949 µM)?
Its viability, T/C is 54.1%.

What about the viability, T/C (second compound 3.16 µM, first compound 0.3 µM) of the same compound?
The viability, T/C was 43.9%.

What about the viability, T/C (second compound 3.16 µM, first compound 0.949 µM) of the same compound?
Its viability, T/C is 17.7%.

And the viability, T/C (second compound 3.16 µM, first compound 3 µM)?
The viability, T/C was 6.66%.

What about the viability, T/C (second compound 10 µM, first compound 0.00949 µM) of the same compound?
Its viability, T/C is 95.2%.

What about the viability, T/C (second compound 10 µM, first compound 0.03 µM) of the same compound?
Its viability, T/C is 96.4%.

And the viability, T/C (second compound 10 µM, first compound 0.0949 µM)?
Its viability, T/C is 64.2%.

And the viability, T/C (second compound 10 µM, first compound 0.3 µM)?
Its viability, T/C is 44%.

What about the viability, T/C (second compound 10 µM, first compound 0.949 µM) of the same compound?
The viability, T/C was 18.4%.

And the viability, T/C (second compound 10 µM, first compound 3 µM)?
The viability, T/C was 9.22%.

CC1COCCN1c1cc(-c2ccnn2C)c2ccnc(-c3ccn[nH]3)c2n1 (stereo unspecified) was tested. Which viability, T/C (compound 0.00316 µM) did it give?
The viability, T/C was 89.5% and 94.4% and 96.2%.

And the viability, T/C (compound 0.01 µM)?
Its viability, T/C is 76.2% and 102% and 80.5%.

What about the viability, T/C (compound 0.0316 µM) of the same compound?
Its viability, T/C is 50.2% and 101% and 62.9%.

What about the viability, T/C (compound 0.1 µM) of the same compound?
Its viability, T/C is 32.1% and 81.2% and 45%.

What about the viability, T/C (compound 0.316 µM) of the same compound?
Its viability, T/C is 21.2% and 65.8% and 31.5%.

And the viability, T/C (compound 1 µM)?
Its viability, T/C is 10.6% and 33.4% and 15.8%.

Which IC50 (second compound 0.1 µM) does the source give for COc1cccc2c1C(=O)c1c(O)c3c(c(O)c1C2=O)CC(O)(C(=O)CO)CC3OC1CC(N)C(O)C(C)O1 (stereo unspecified) + Cc1cncc(-c2nc(NCCc3c[nH]c4ccccc34)c3ncn(C(C)C)c3n2)c1 here?
Its IC50 is < 31.6 nM.

And the IC50 (second compound 0.316 µM)?
The IC50 was < 31.6 nM.

What about the IC50 (second compound 1 µM) of the same compound?
Its IC50 is < 31.6 nM.

What about the IC50 (second compound 3.16 µM) of the same compound?
The IC50 was < 31.6 nM.

And the IC50 (second compound 10 µM)?
Its IC50 is < 31.6 nM.

What about the viability, T/C [1] of the same compound?
The viability, T/C was 28.3%.

And the viability, T/C [2]?
The viability, T/C was 17.7%.

What about the viability, T/C [3] of the same compound?
Its viability, T/C is 5%.

And the viability, T/C [4]?
The viability, T/C was 0.93%.

What about the viability, T/C [5] of the same compound?
Its viability, T/C is 0.14%.

What about the viability, T/C [6] of the same compound?
The viability, T/C was 0.22%.

And the viability, T/C [7]?
The viability, T/C was 26.7%.

And the viability, T/C [8]?
The viability, T/C was 16.3%.

What about the viability, T/C [9] of the same compound?
Its viability, T/C is 4.84%.

And the viability, T/C [10]?
Its viability, T/C is 0.28%.

And the viability, T/C [11]?
The viability, T/C was 0.12%.

What about the viability, T/C [12] of the same compound?
The viability, T/C was 0.18%.

And the viability, T/C [13]?
Its viability, T/C is 27.6%.

And the viability, T/C [14]?
Its viability, T/C is 15%.

What about the viability, T/C [15] of the same compound?
Its viability, T/C is 4.86%.

What about the viability, T/C [16] of the same compound?
Its viability, T/C is 0.26%.

And the viability, T/C [17]?
The viability, T/C was 0.16%.

What about the viability, T/C [18] of the same compound?
The viability, T/C was 0.25%.

What about the viability, T/C [19] of the same compound?
The viability, T/C was 21.4%.

What about the viability, T/C [20] of the same compound?
The viability, T/C was 15.9%.

And the viability, T/C [21]?
Its viability, T/C is 4.37%.

And the viability, T/C [22]?
Its viability, T/C is 0.22%.

And the viability, T/C [23]?
Its viability, T/C is 0.16%.

What about the viability, T/C [24] of the same compound?
The viability, T/C was 0.28%.

What about the viability, T/C [25] of the same compound?
The viability, T/C was 8.93%.

What about the viability, T/C [26] of the same compound?
Its viability, T/C is 5.47%.

And the viability, T/C [27]?
Its viability, T/C is 3.18%.

What about the viability, T/C [28] of the same compound?
The viability, T/C was 0.37%.

What about the viability, T/C [29] of the same compound?
Its viability, T/C is 0.16%.

And the viability, T/C [30]?
The viability, T/C was 0.24%.

How did the IC50 (second compound 0.1 µM) turn out when CC1COCCN1c1cc(C2(S(C)(=N)=O)CC2)nc(-c2ccnc3[nH]ccc23)n1 (stereo unspecified) + Cc1cncc(-c2nc(NCCc3c[nH]c4ccccc34)c3ncn(C(C)C)c3n2)c1 was run?
The IC50 was 6130 nM.

And the IC50 (second compound 0.316 µM)?
The IC50 was 5180 nM.

What about the IC50 (second compound 1 µM) of the same compound?
Its IC50 is 5900 nM.

What about the IC50 (second compound 3.16 µM) of the same compound?
Its IC50 is 4840 nM.

What about the IC50 (second compound 10 µM) of the same compound?
Its IC50 is 933 nM.

And the viability, T/C [1]?
The viability, T/C was 98.5%.

And the viability, T/C [2]?
Its viability, T/C is 96%.

What about the viability, T/C [3] of the same compound?
Its viability, T/C is 119%.

What about the viability, T/C [4] of the same compound?
Its viability, T/C is 115%.

What about the viability, T/C [5] of the same compound?
Its viability, T/C is 81.9%.

What about the viability, T/C [6] of the same compound?
Its viability, T/C is 26.5%.

What about the viability, T/C [7] of the same compound?
The viability, T/C was 105%.

And the viability, T/C [8]?
The viability, T/C was 111%.

What about the viability, T/C [9] of the same compound?
Its viability, T/C is 100%.

What about the viability, T/C [10] of the same compound?
The viability, T/C was 99.9%.

What about the viability, T/C [11] of the same compound?
Its viability, T/C is 64.1%.

What about the viability, T/C [12] of the same compound?
Its viability, T/C is 31%.

And the viability, T/C [13]?
Its viability, T/C is 122%.

What about the viability, T/C [14] of the same compound?
Its viability, T/C is 119%.

And the viability, T/C [15]?
The viability, T/C was 114%.

What about the viability, T/C [16] of the same compound?
The viability, T/C was 87.7%.

And the viability, T/C [17]?
The viability, T/C was 77.3%.

What about the viability, T/C [18] of the same compound?
The viability, T/C was 30.2%.

What about the viability, T/C [19] of the same compound?
The viability, T/C was 98%.

What about the viability, T/C [20] of the same compound?
Its viability, T/C is 85.7%.

And the viability, T/C [21]?
The viability, T/C was 93.5%.

And the viability, T/C [22]?
The viability, T/C was 81.1%.

And the viability, T/C [23]?
The viability, T/C was 64.3%.

What about the viability, T/C [24] of the same compound?
Its viability, T/C is 26%.

And the viability, T/C [25]?
The viability, T/C was 53%.

And the viability, T/C [26]?
The viability, T/C was 52.3%.

What about the viability, T/C [27] of the same compound?
The viability, T/C was 67.7%.

What about the viability, T/C [28] of the same compound?
Its viability, T/C is 41.7%.

What about the viability, T/C [29] of the same compound?
The viability, T/C was 39.8%.

What about the viability, T/C [30] of the same compound?
Its viability, T/C is 19.3%.
